Tests used:
[1] = Solubility in tissue culture media; type: physicochemical
INCL fibroblasts = test: MTT viability of cultured INCL fibroblasts; type: cell-based, human; conditions: 48 hours of treatment; viability as percent of untreated control (FIG. 4A-C)
Description: Ten out of the twelve HA-derivative compounds listed in Table 1 were tested to determine whether they adversely affected the viability of cultured cells from INCL patients. […] Briefly, following treatment with HA-derivatives INCL cells were incubated with Thiazolyl Blue Tetrazolium […] for 4 hours at 37° C. Formazan crystals thus formed were dissolved in acidified isopropanol and absorption was measured at 570 nm. Viability was expressed as percent of untreated control.
Briefly, normal fibroblasts (GM 00498) were obtained from the Coriell Institute of Medical Research, USA. PPT1-deficient INCL fibroblasts were isolated from skin biopsy samples of INCL patients admitted to an ongoing clinical protocol (#01-CH-0086) approved by the Institutional Review Board (IRB) of the National Institute of Child Health and Human Development (NICHD) at the National Institute of Health (NIH). […] The fibroblasts were cultured in the presence or absence of varying concentrations of each of the HA-derivatives for 48 hours, after which the viability of the cells was determined using the MTT-Cell Viability Assay by T. Mossman, (Rapid colorimetric assay for cellular growth and survival. J. Immunol. Method. 65 (1983) 55-63).

[2] = Cleavage of thioester linkage in [14C]palmitoyl-CoA, release of free [14C]palmitate (TLC, autoradiography); type: biochemical; conditions: varying concentrations; various incubation times; [14C]palmitate production
Description: It has been reported that thioester linkages in s-acylated proteins are labile, and that compounds having nucleophilic properties are able to disrupt such linkages. Thus, the ability of derivatives of hydroxylamine to disrupt thioester linkages in s-acylated proteins was tested. Twelve HA-derivatives, described in Table 1, were screened for their ability to cleave thioester linkage in [^14C]palmitoyl˜CoA (a model thioester substrate of PPT1), mediating the release of free [^14C]palmitic acid, a process depicted in FIG. 2. […] [^14C]-palmitoyl-CoA was incubated for 1 hour with each of the HA derivatives and the reaction mixture was resolved by thin layer chromatography (TLC) followed by autoradiography. The free [^14C]-palmitate bands were visible and quantitated by densitometric analysis of the bands.

SMILES	solubility in tissue culture media [1]	dose- and time-dependence of thioester linkage cleavage in [14C]palmitoyl-CoA [2]	other results
ON(Cc1ccccc1)Cc1ccccc1 [N,N-dibenzylhydroxylamine, N,N-Dibenzylhydroxylamine]	insoluble in tissue culture media	–	–
O=C(c1ccccc1)N(O)c1ccccc1 [N-Benzoyl-N-phenyl hydroxylamine]	–	–	toxicity / viability of INCL cells (MTT) (INCL fibroblasts): all ten compounds except N-Benzoyl-N-phenyl hydroxylamine are non-toxic
CC(ON(C(c1ccccc1)C(C)C)C(C)(C)C)c1ccc(CCl)cc1 (centres unmarked) [N-tert-Butyl-O-[1-[4-(chloromethyl)phenyl]ethyl]-N-(2-methyl-1-phenylpropyl)hydroxylamine]	insoluble in tissue culture media	–	–
ONCc1ccccc1 [benzyl-HA, N-Benzylhydroxylamine]	–	cleaved the thioester linkage in a dose-dependent and time-dependent manner	–
CNO [methyl-HA, N-Methylhydroxylamine]	–	cleaved the thioester linkage in a dose-dependent and time-dependent manner	–
